The compounds below were run against T1, BaF3 TELJAK3 cells (Homo sapiens, UniProt P52333) (assay: Cellular screening, BaF3 TEL:JAK3 cells, Alamar Blue). Conditions: 40 hr, read-out: BafT_J3 IC50_nM.
T1 construct: fused on or other part: TEL (ETV6) N-terminal part, coding nucleotides 1-487, serves as the oligomerising partner; It is fused through a Sal I site to the JAK3 kinase domain and expressed from pTRE2 in BaF3 cells bearing pTET-off; P41212 (Transcription factor ETV6)
T1 sequence (P52333 1-1124): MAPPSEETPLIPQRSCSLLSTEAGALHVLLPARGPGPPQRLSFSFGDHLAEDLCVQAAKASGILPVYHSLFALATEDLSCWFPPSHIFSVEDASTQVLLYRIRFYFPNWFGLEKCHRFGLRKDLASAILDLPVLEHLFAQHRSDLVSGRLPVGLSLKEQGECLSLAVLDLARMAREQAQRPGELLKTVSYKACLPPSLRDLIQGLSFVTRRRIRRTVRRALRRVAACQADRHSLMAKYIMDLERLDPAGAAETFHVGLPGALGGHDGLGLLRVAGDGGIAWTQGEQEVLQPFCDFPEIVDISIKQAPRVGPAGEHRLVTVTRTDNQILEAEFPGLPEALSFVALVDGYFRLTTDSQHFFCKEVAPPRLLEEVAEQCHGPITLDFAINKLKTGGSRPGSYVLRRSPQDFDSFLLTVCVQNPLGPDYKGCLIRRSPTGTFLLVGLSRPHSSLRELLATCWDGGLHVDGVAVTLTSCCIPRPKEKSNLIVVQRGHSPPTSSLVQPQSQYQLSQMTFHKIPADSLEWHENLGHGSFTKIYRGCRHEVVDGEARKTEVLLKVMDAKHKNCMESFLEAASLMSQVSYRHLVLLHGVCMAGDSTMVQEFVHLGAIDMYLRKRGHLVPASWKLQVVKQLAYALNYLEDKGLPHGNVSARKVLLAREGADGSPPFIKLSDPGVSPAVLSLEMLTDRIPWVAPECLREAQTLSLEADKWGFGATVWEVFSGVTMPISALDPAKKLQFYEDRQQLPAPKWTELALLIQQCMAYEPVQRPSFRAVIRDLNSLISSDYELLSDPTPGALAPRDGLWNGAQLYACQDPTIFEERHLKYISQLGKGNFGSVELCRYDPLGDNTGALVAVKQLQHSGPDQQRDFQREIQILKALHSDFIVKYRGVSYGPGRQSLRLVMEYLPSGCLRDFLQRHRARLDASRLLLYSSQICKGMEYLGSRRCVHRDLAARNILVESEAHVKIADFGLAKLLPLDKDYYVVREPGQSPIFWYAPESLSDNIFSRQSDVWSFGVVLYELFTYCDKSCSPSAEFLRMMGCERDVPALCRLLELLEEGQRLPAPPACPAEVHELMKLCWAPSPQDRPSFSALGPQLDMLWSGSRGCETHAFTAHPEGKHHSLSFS
Assay type: cell-based
In short: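 Alamar Blue signal at 544 nm, developed for 4–6 h, measured viability after 40 h of compound treatment at 37 °C, 5% CO2. Cells were growth-factor-independent BaF3 lines transfected with a TEL/JAK3 kinase-domain fusion under tet-off control. They were cultured in DMEM, 10% Tet-approved FBS, lacking WEHI 3B conditioned medium.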

SMILES | GI50 [µM]
C=CC(=O)Nc1cccc(Nc2nccc(SC)n2)c1 [Compound 7, N-(3-(4-(methylthio)pyrimidin-2-ylao)phenyl)acrylamide] | < 5
Cc1cnc(Nc2ccc(O)cc2)nc1Sc1ccc(N)cc1 [Compound 191, 4-(4-(4-aophenylthio)-5-methylpyrimidin-2-ylao)phenol] | < 5
N#Cc1ncn(Cc2ccc(Sc3ccnc(Nc4ccc(N5CCOCC5)cc4)n3)cc2)c1N [Compound 202, 5-ao-1-(4-(2-(4-morpholinophenylao)pyrimidin-4-ylthio)benzyl)-1H-imidazole-4-carbonitrile] | < 5
Cc1cnc(Nc2ccc(N3CCOCC3)cc2)nc1Sc1ccc(NC(=O)CO)cc1 [Compound 229, 2-hydroxy-N-(4-(5-methyl-2-(4-morpholinophenylao)pyrimidin-4-ylthio)phenyl)acetamide] | < 20
Cc1cnc(Nc2ccc(N3CCOCC3)cc2)nc1Sc1ccc(C=O)cc1 [Compound 219, 4-(5-methyl-2-(4-morpholinophenylao)pyrimidin-4-ylthio)benzaldehyde] | < 5
N#Cc1c(N)ncn1Cc1ccc(Sc2ccnc(Nc3ccc(N4CCOCC4)cc3)n2)cc1 [Compound 203, 4-ao-1-(4-(2-(4-morpholinophenylao)pyrimidin-4-ylthio)benzyl)-1H-imidazole-5-carbonitrile] | < 1
Cc1cnc(Nc2ccc(N3CCOCC3)cc2)nc1Sc1ccc(C(C#N)N2CCOCC2)cc1 (stereo not shown) [Compound 223, 2-(4-(5-methyl-2-(4-morpholinophenylao)pyrimidin-4-ylthio)phenyl)-2-morpholinoacetonitrile] | < 20
NC(=O)c1ccc(Sc2ccnc(Nc3ccc(N4CCOCC4)cc3)n2)cc1 [Compound 207, 4-(2-(4-morpholinophenylao)pyrimidin-4-ylthio)benzamide] | > 20
Cc1cnc(Nc2ccc(N3CCOCC3)cc2)nc1Sc1ccc(N2C(=O)COCC2=O)cc1 [Compound 190, 4-(4-(5-methyl-2-(4-morpholinophenylao)pyrimidin-4-ylthio)phenyl)morpholine-3,5-dione] | > 20
Cc1cnc(Nc2ccc(N3CCOCC3)cc2)nc1Sc1ccc(CC#N)cc1 [Compound 222, 2-(4-(5-methyl-2-(4-morpholinophenylao)pyrimidin-4-ylthio)phenyl)acetonitrile] | > 20
c1cc(Sc2ccc(Cn3cncn3)cc2)nc(Nc2ccc(N3CCOCC3)cc2)n1 [Compound 204, 4-(4-((1H-1,2,4-triazol-1-yl)methyl)phenylthio)-N-(4-morpholinophenyl)pyrimidin-2-ae] | < 20
N#Cc1c(N)ncn1Cc1cccc(Sc2ccnc(Nc3ccc(N4CCOCC4)cc3)n2)c1 [Compound 199, 4-ao-1-(3-(2-(4-morpholinophenylao)pyrimidin-4-ylthio)benzyl)-1H-imiazole-5-carbonitrile] | < 20
CON(C)C(=O)c1ccc(Sc2nc(Nc3ccc(N4CCOCC4)cc3)ncc2C)cc1 [Compound 218, N-methoxy-N-methyl-4-(5-methyl-2-(4-morpholinophenylao)pyrimidin-4-ylthio)benzamide] | < 20
Cc1cnc(Nc2ccc(N3CCOCC3)cc2)nc1Sc1ccc(CO)cc1 [Compound 220, (4-(5-methyl-2-(4-morpholinophenylao)pyrimidin-4-ylthio)phenyl)methanol] | < 5
Cc1cnc(Nc2ccc(N3CCOCC3)cc2)nc1Sc1ccc(C(=O)N2CCCC2)cc1 [Compound 224, (4-(5-methyl-2-(4-morpholinophenylao)pyrimidin-4-ylthio)phenyl)(pyrrolidin-1-yl)methanone] | > 20
N#CCc1ccc(Sc2ccnc(Nc3ccc(N4CCOCC4)cc3)n2)cc1 [Compound 210, 2-(4-(2-(4-morpholinophenylao)pyrimidin-4-ylthio)phenyl)acetonitrile] | > 20
Cc1cnc(Nc2cccc(NS(C)(=O)=O)c2)nc1Sc1ccc(CO)cc1 [Compound 226, N-(3-(4-(4-(hydroxymethyl)phenylthio)-5-methylpyrimidin-2-ylao)phenyl)methanesulfonamide] | < 5
Cc1cnc(Nc2ccc(N3CCOCC3)cc2)nc1Sc1cccc(CO)c1 [Compound 212, (3-(5-methyl-2-(4-morpholinophenylao)pyrimidin-4-ylthio)phenyl)methanol] | > 20
Cc1cnc(Nc2cccc(S)c2)nc1Sc1ccc(NC(=O)CCl)cc1 [Compound 195, 2-chloro-N-(4-(2-(3-mercaptophenylao)-5-methylpyrimidin-4-ylthio)phenyl)acetamide] | < 20
Cc1cnc(Nc2ccc(N3CCOCC3)cc2)nc1Sc1ccc(NC2CCOC2=O)cc1 (stereo not shown) [Compound 228, 3-(4-(5-methyl-2-(4-morpholinophenylao)pyrimidin-4-ylthio)phenylao)dihydrofuran-2(3H)-one] | > 20
Cc1cnc(Nc2ccc(N3CCOCC3)cc2)nc1Sc1ccc(C(C#N)N2CCN(C)CC2)cc1 (stereo not shown) [Compound 225, 2-(4-(5-methyl-2-(4-morpholinophenylao)pyrimidin-4-ylthio)phenyl)-2-(4-methylpiperazin-1-yl)acetonitrile] | < 5
Cc1cnc(Nc2ccc(N3CCOCC3)cc2)nc1Sc1ccc(N2CCSCC2=O)cc1 [Compound 197, 4-(4-(5-methyl-2-(4-morpholinophenylao)pyrimidin-4-ylthio)phenyl)thiomorpholin-3-one] | > 20
